From patent US11716992B2, “5A5B6C tricyclic spirolactone derivative, preparation method therefor and use thereof” (NANKAI UNIVERSITY, priority 2017, dated 2023)

The compounds below were run on Botrytis cinerea (assay: Fungicidal activity, fungicide growth rate method, BC). Details: Botrytis cinerea, 50 μg/mL; read-out: fungicidal activity (growth inhibition rate), BC.
Assay type: cell-based

| SMILES | inhibition at 50 µg/mL [%] |
| --- | --- |
| C=CC[C@@H]1C[C@]2(O)CC(=O)O[C@@]23CC=CC[C@H]13 [Zyj06-186] | 49 |
| C=CC[C@@H]1C[C@]2(O[Si](C)(C)CC=C)CCO[C@@]23C[C@H](O[Si](C)(C)CC=C)CC[C@H]13 [Zyj07-46] | > 50 |
| CO[C@@H]1C[C@]2(O)CC(=O)O[C@@]23CC=CC[C@H]13 [Zyj06-189] | > 50 |

These compounds were tested on Alternaria solani (assay: Fungicidal activity, fungicide growth rate method, AS). Details: Alternaria solani, 50 μg/mL; read-out: fungicidal activity (growth inhibition rate), AS.
Assay type: cell-based

| SMILES | inhibition at 50 µg/mL [%] |
| --- | --- |
| C=CC[C@@H]1C[C@]2(O)CC(=O)O[C@@]23CC=CC[C@H]13 [Zyj06-186] | 7 |
| C=CC[C@@H]1C[C@]2(O[Si](C)(C)CC=C)CCO[C@@]23C[C@H](O[Si](C)(C)CC=C)CC[C@H]13 [Zyj07-46] | 8 |
| CO[C@@H]1C[C@]2(O)CC(=O)O[C@@]23CC=CC[C@H]13 [Zyj06-189] | 0 |

What follows are compounds tested on Rhizoctonia cerealis (assay: Fungicidal activity, fungicide growth rate method, RC). Details: Ceratobasidium cereale, 50 μg/mL; read-out: fungicidal activity (growth inhibition rate), RC.
Assay type: cell-based

| SMILES | inhibition at 50 µg/mL [%] |
| --- | --- |
| C=CC[C@@H]1C[C@]2(O)CC(=O)O[C@@]23CC=CC[C@H]13 [Zyj06-186] | 41 |
| C=CC[C@@H]1C[C@]2(O[Si](C)(C)CC=C)CCO[C@@]23C[C@H](O[Si](C)(C)CC=C)CC[C@H]13 [Zyj07-46] | 0 |
| CO[C@@H]1C[C@]2(O)CC(=O)O[C@@]23CC=CC[C@H]13 [Zyj06-189] | 29 |

Each compound was assayed on Physalospora piricola (assay: Fungicidal activity, fungicide growth rate method, PP). Details: 50 μg/mL; read-out: fungicidal activity (growth inhibition rate), PP.
Assay type: cell-based

| SMILES | inhibition at 50 µg/mL [%] |
| --- | --- |
| C=CC[C@@H]1C[C@]2(O)CC(=O)O[C@@]23CC=CC[C@H]13 [Zyj06-186] | 11 |
| C=CC[C@@H]1C[C@]2(O[Si](C)(C)CC=C)CCO[C@@]23C[C@H](O[Si](C)(C)CC=C)CC[C@H]13 [Zyj07-46] | 21 |
| CO[C@@H]1C[C@]2(O)CC(=O)O[C@@]23CC=CC[C@H]13 [Zyj06-189] | > 50 |

The compounds below were run on Ostrinia furnacalis (assay: Insecticidal activity against Ostrinia furnacalis). Details: Ostrinia furnacalis; 100 μg/mL; read-out: insecticidal activity, Ostrinia furnacalis.
Assay type: in vivo

| SMILES | pest or weed control at 100 µg/mL [%] |
| --- | --- |
| C=CC[C@@H]1C[C@]2(O)CC(=O)O[C@@]23CC=CC[C@H]13 [Zyj06-186] | 0 |
| C=CC[C@@H]1C[C@]2(O[Si](C)(C)CC=C)CCO[C@@]23C[C@H](O[Si](C)(C)CC=C)CC[C@H]13 [Zyj07-46] | 0 |
| CO[C@@H]1C[C@]2(O)CC(=O)O[C@@]23CC=CC[C@H]13 [Zyj06-189] | 0 |

What follows are compounds tested on Apis mellifera ligustica Spin (assay: not given). Details: dosage 9.77 μg a.i./bee.

| SMILES | Death rate after 48 h (%) |
| --- | --- |
| CO[C@@H]1C[C@]2(O)CC(=O)O[C@@]23CC=CC[C@H]13 [Zyj06-189] | 0 |

Same assay, conditions: dosage 9.77 μg a.i./bee; per replicate of 10 bees

| SMILES | Death number after 24 h | Death number after 48 h |
| --- | --- | --- |
| CO[C@@H]1C[C@]2(O)CC(=O)O[C@@]23CC=CC[C@H]13 [Zyj06-189] | 0 | 0 |

Same assay, conditions: dosage 16.4 μg a.i./bee

| SMILES | Death rate after 48 h (%) |
| --- | --- |
| CO[C@@H]1C[C@]2(O)CC(=O)O[C@@]23CC=CC[C@H]13 [Zyj06-189] | 0 |

Same assay, conditions: dosage 16.4 μg a.i./bee; per replicate of 10 bees

| SMILES | Death number after 24 h | Death number after 48 h |
| --- | --- | --- |
| CO[C@@H]1C[C@]2(O)CC(=O)O[C@@]23CC=CC[C@H]13 [Zyj06-189] | 0 | 0 |

The compounds below were run on Sclerotinia sclerotiorum (assay: Fungicidal activity, fungicide growth rate method, SS). Details: Sclerotinia sclerotiorum, 50 μg/mL.
Assay type: cell-based

| SMILES | inhibition at 50 µg/mL [%] |
| --- | --- |
| C=CC[C@@H]1C[C@]2(O)CC(=O)O[C@@]23CC=CC[C@H]13 [Zyj06-186] | > 50 |
| C=CC[C@@H]1C[C@]2(O[Si](C)(C)CC=C)CCO[C@@]23C[C@H](O[Si](C)(C)CC=C)CC[C@H]13 [Zyj07-46] | > 50 |
| CO[C@@H]1C[C@]2(O)CC(=O)O[C@@]23CC=CC[C@H]13 [Zyj06-189] | 0 |

Each compound was assayed on Phytophthora infestans (Mont.) de Bary (assay: microbe, parasite or virus in culture). Details: Phytophthora infestans, read-out: fungicidal activity (growth inhibition rate), PI, 50 μg/mL.
Assay type: cell-based

| SMILES | inhibition at 50 µg/mL [%] |
| --- | --- |
| C=CC[C@@H]1C[C@]2(O)CC(=O)O[C@@]23CC=CC[C@H]13 [Zyj06-186] | 4 |
| C=CC[C@@H]1C[C@]2(O[Si](C)(C)CC=C)CCO[C@@]23C[C@H](O[Si](C)(C)CC=C)CC[C@H]13 [Zyj07-46] | 21 |
| CO[C@@H]1C[C@]2(O)CC(=O)O[C@@]23CC=CC[C@H]13 [Zyj06-189] | 23 |

What follows are compounds tested on Helicoverpa armigera (Hübner) (assay: Insecticidal activity against Helicoverpa armigera (Hübner)). Details: Helicoverpa armigera; 100 μg/mL; read-out: insecticidal activity, Helicoverpa armigera (Hübner).
Assay type: in vivo

| SMILES | pest or weed control at 100 µg/mL [%] |
| --- | --- |
| C=CC[C@@H]1C[C@]2(O)CC(=O)O[C@@]23CC=CC[C@H]13 [Zyj06-186] | 0 |
| C=CC[C@@H]1C[C@]2(O[Si](C)(C)CC=C)CCO[C@@]23C[C@H](O[Si](C)(C)CC=C)CC[C@H]13 [Zyj07-46] | 5 |
| CO[C@@H]1C[C@]2(O)CC(=O)O[C@@]23CC=CC[C@H]13 [Zyj06-189] | 0 |

Each compound was assayed on Pellicularia sasakii (assay: Fungicidal activity, fungicide growth rate method, PS). Details: 50 μg/mL; read-out: fungicidal activity (growth inhibition rate), PS.
Assay type: cell-based

| SMILES | inhibition at 50 µg/mL [%] |
| --- | --- |
| C=CC[C@@H]1C[C@]2(O)CC(=O)O[C@@]23CC=CC[C@H]13 [Zyj06-186] | 6 |
| C=CC[C@@H]1C[C@]2(O[Si](C)(C)CC=C)CCO[C@@]23C[C@H](O[Si](C)(C)CC=C)CC[C@H]13 [Zyj07-46] | 22 |
| CO[C@@H]1C[C@]2(O)CC(=O)O[C@@]23CC=CC[C@H]13 [Zyj06-189] | 23 |

The compounds below were run on Caenorhabditis elegans (assay: Insecticidal activity against Caenorhabditis elegans). Details: Caenorhabditis elegans, 100 μg/mL; read-out: insecticidal activity, Caenorhabditis elegans.
Assay type: in vivo

| SMILES | pest or weed control at 100 µg/mL [%] |
| --- | --- |
| C=CC[C@@H]1C[C@]2(O)CC(=O)O[C@@]23CC=CC[C@H]13 [Zyj06-186] | 15 |
| C=CC[C@@H]1C[C@]2(O[Si](C)(C)CC=C)CCO[C@@]23C[C@H](O[Si](C)(C)CC=C)CC[C@H]13 [Zyj07-46] | 10 |
| CO[C@@H]1C[C@]2(O)CC(=O)O[C@@]23CC=CC[C@H]13 [Zyj06-189] | 8 |

What follows are compounds tested on Cercospora arachidicola (assay: Fungicidal activity, fungicide growth rate method, CA). Details: Mycosphaerella arachidis, 50 μg/mL; read-out: fungicidal activity (growth inhibition rate), CA.
Assay type: cell-based

| SMILES | inhibition at 50 µg/mL [%] |
| --- | --- |
| C=CC[C@@H]1C[C@]2(O)CC(=O)O[C@@]23CC=CC[C@H]13 [Zyj06-186] | 46 |
| C=CC[C@@H]1C[C@]2(O[Si](C)(C)CC=C)CCO[C@@]23C[C@H](O[Si](C)(C)CC=C)CC[C@H]13 [Zyj07-46] | 14 |
| CO[C@@H]1C[C@]2(O)CC(=O)O[C@@]23CC=CC[C@H]13 [Zyj06-189] | 24 |

Each compound was assayed on Mythimna separate (Walker) (assay: Insecticidal activity against Mythimna separate (Walker)). Details: Mythimna, 100 μg/mL; read-out: insecticidal activity, Mythimna separate (Walker).
Assay type: in vivo

| SMILES | pest or weed control at 100 µg/mL [%] |
| --- | --- |
| C=CC[C@@H]1C[C@]2(O)CC(=O)O[C@@]23CC=CC[C@H]13 [Zyj06-186] | 0 |
| C=CC[C@@H]1C[C@]2(O[Si](C)(C)CC=C)CCO[C@@]23C[C@H](O[Si](C)(C)CC=C)CC[C@H]13 [Zyj07-46] | 20 |
| CO[C@@H]1C[C@]2(O)CC(=O)O[C@@]23CC=CC[C@H]13 [Zyj06-189] | 0 |

These compounds were tested on wheat Gibberella zeae (assay: microbe, parasite or virus in culture). Details: Fusarium graminearum, read-out: fungicidal activity (growth inhibition rate), GZ, 50 μg/mL.
Assay type: cell-based

| SMILES | inhibition at 50 µg/mL [%] |
| --- | --- |
| C=CC[C@@H]1C[C@]2(O)CC(=O)O[C@@]23CC=CC[C@H]13 [Zyj06-186] | 21 |
| C=CC[C@@H]1C[C@]2(O[Si](C)(C)CC=C)CCO[C@@]23C[C@H](O[Si](C)(C)CC=C)CC[C@H]13 [Zyj07-46] | 3 |
| CO[C@@H]1C[C@]2(O)CC(=O)O[C@@]23CC=CC[C@H]13 [Zyj06-189] | 13 |
